In ChEMBL document CHEMBL1697781, “Assessment of the health effects of chemicals in humans: II. Construction of an adverse effects database for QSAR modeling” (Curr Drug Discov Technol, 2004):

Legend:
Conditions in all cases: human; call rule not given here
[1] = tested on: Hepatotoxicity; experiment: FDA HLAED, liver enzyme composite activity
[2] = tested on: Hepatotoxicity; experiment: FDA HLAED, alkaline phosphatase increase
[3] = tested on: Hepatotoxicity; experiment: FDA HLAED, serum glutamic oxaloacetic transaminase (SGOT) increase
[4] = tested on: Hepatotoxicity; experiment: FDA HLAED, serum glutamic pyruvic transaminase (SGPT) increase
[5] = tested on: Hepatotoxicity; experiment: FDA HLAED, lactate dehydrogenase (LDH) increase
[6] = tested on: Hepatotoxicity; experiment: FDA HLAED, gamma-glutamyl transferase (GGT) increase
Wherever GGT Increase - Index Value is given: reference of the scale not given here.
Wherever LDH Increase - Index Value is given: reference of the scale not given here.

Compound	Composite Activity - Active [1]	Composite Activity - Marginal [1]	Composite Activity - Score [1]	Alkaline Phosphatase Increase - Activity Score [2]	Alkaline Phosphatase Increase - Index Value [2]	Alkaline Phosphatase Increase - Number of Reports [2]	SGOT Increase - Activity Score [3]	SGOT Increase - Index Value [3]	SGOT Increase - Number of Reports [3]	SGPT Increase - Activity Score [4]	SGPT Increase - Index Value [4]	SGPT Increase - Number of Reports [4]	LDH Increase - Activity Score [5]	LDH Increase - Index Value [5]	LDH Increase - Number of Reports [5]	GGT Increase - Activity Score [6]	GGT Increase - Index Value [6]	GGT Increase - Number of Reports [6]
CCc1nn(CCCN2CCN(c3cccc(Cl)c3)CC2)c(=O)n1CCOc1ccccc1 [NEFAZODONE]	0	2	Inactive	Inactive	1.1	>= 4	Marginally Active	3.6	>= 4	Marginally Active	3.3	>= 4	Inactive	1.1	>= 4	Inactive	1.1	>= 4
C[N+](C)(C)C[C@H](O)CC(=O)[O-] [LEVOCARNITINE]	0	0	Inactive	Inactive	0	< 4	Inactive	0	< 4	Inactive	0	< 4	Inactive	0	< 4	Inactive	0	< 4
C[C@H](CCC(=O)O)[C@H]1CC[C@H]2[C@@H]3[C@H](O)C[C@@H]4C[C@H](O)CC[C@]4(C)[C@H]3CC[C@]12C [CHENODIOL]	0	0	Inactive	Inactive	0	< 4	Inactive	0	< 4	Inactive	0	< 4	Inactive	0	< 4	Inactive	0	< 4
CC(C)NCC(O)c1ccc(NS(C)(=O)=O)cc1 (stereo not drawn) [SOTALOL]	0	0	Inactive	Inactive	1	< 4	Inactive	3	< 4	Inactive	0	< 4	Inactive	1	< 4	Inactive	1	< 4
CCC(C)n1ncn(-c2ccc(N3CCN(c4ccc(OCC5COC(Cn6cncn6)(c6ccc(Cl)cc6Cl)O5)cc4)CC3)cc2)c1=O (stereo not drawn) [ITRACONAZOLE]	5	0	Active	Active	12.4	>= 4	Active	19.6	>= 4	Active	19.8	>= 4	Active	5.8	>= 4	Active	14.1	>= 4
C[C@]12CC[C@@H]3c4ccc(O)cc4CC[C@H]3[C@@H]1CC[C@@H]2O [ESTRADIOL]	0	0	Inactive	Inactive	1.5	>= 4	Inactive	2.8	>= 4	Inactive	2.1	>= 4	Inactive	1.2	>= 4	Inactive	0.3	< 4
